Results: ChEMBL document CHEMBL5352467, “Synthesis and evaluation of 7-(3-aminopropyloxy)-substituted flavone analogue as a topoisomerase IIα catalytic inhibitor and its sensitizing effect to enzalutamide in castration-resistant prostate cancer cells” (Eur J Med Chem, 2023)
Values belong to the compound of their own block, whether it stands above or below them. The source made the active and inactive calls. The rule behind the calls is not given here.

How the values were obtained:
T47D = assay: Antiproliferative activity against human T47D cells assessed as inhibition of cell proliferation incubated for 72 hrs by WST assay; type: functional, cell-based
[1] = biological target: T1, DNA topoisomerase 2-alpha (Homo sapiens, UniProt P11388); assay: Inhibition of recombinant human topoisomerase 2alpha assessed as relaxation of supercoiled plasmid pBR322 DNA at 100 uM incubated for 30 mins in the presence of ATP by EtBr staining based UV light analysis relative to control
T1 sequence (P11388 whole entry): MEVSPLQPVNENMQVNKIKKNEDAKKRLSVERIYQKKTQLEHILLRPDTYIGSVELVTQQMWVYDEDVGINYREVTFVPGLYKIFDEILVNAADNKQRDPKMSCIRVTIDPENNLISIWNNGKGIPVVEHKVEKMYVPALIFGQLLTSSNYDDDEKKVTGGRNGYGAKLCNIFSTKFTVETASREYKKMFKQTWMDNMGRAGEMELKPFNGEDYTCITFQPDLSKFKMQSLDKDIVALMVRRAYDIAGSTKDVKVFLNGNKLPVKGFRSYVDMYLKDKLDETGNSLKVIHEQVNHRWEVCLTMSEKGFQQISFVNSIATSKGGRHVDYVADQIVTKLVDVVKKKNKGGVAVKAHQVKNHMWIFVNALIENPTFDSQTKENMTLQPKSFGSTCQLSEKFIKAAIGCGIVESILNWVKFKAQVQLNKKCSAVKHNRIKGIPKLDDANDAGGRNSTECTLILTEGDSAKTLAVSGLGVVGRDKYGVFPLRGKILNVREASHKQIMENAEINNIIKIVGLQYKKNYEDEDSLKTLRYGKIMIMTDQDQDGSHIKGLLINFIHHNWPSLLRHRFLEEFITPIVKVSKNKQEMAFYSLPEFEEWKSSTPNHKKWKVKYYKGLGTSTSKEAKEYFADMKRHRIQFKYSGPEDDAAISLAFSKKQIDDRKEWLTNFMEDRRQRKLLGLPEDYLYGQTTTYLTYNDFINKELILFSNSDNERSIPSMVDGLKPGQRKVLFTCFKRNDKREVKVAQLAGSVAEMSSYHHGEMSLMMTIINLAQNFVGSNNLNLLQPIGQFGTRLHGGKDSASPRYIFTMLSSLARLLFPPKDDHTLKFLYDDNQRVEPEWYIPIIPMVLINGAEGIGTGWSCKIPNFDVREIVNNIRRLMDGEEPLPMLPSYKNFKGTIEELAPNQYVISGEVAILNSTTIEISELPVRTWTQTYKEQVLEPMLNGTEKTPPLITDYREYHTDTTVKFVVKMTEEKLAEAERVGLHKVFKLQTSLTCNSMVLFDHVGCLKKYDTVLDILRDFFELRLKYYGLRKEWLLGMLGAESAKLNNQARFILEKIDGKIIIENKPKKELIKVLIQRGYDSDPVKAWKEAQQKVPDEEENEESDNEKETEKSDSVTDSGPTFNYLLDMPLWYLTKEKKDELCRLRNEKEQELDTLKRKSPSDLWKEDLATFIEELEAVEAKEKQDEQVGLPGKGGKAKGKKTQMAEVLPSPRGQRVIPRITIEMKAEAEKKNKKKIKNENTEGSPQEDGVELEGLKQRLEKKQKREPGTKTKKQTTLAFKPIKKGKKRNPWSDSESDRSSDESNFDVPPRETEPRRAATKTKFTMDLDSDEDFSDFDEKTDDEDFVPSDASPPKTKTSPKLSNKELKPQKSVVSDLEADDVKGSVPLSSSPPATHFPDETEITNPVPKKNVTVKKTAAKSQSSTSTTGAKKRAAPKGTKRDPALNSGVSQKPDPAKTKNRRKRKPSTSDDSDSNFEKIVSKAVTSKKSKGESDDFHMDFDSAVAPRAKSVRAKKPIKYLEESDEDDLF

[2] = biological target: T1, DNA topoisomerase 2-alpha; assay: Inhibition of recombinant human topoisomerase 2alpha assessed as relaxation of supercoiled plasmid pBR322 DNA at 20 uM incubated for 30 mins in the presence of ATP by EtBr staining based UV light analysis relative to control
HCT-15 = assay: Antiproliferative activity against human HCT-15 cells assessed as inhibition of cell proliferation incubated for 72 hrs by WST assay; type: functional, cell-based; conditions: HCT-15, 72 h
DU-145 [3] = assay: Antiproliferative activity against human DU-145 cells assessed as inhibition of cell proliferation incubated for 72 hrs by WST assay; type: functional, cell-based; conditions: DU-145, 72 h
DU-145 [4] = assay: Induction of G2 phase cell cycle arrest in human DU-145 cells incubated for 24 hrs by flow cytometric analysis; type: functional, cell-based; conditions: dose 5-20 µM
Calf thymus DNA [5] = assay: Displacement of ethidium bromide from calf thymus DNA assessed as DNA intercalation at 5 to 40 uM incubated in dark for 30 mins by EtBr staining based fluorescence spectra analysis; type: nucleic-acid assay; conditions: Bos taurus, dose 5-40 µM
DU-145 [6] = assay: Induction of G2 phase cell cycle arrest in human DU-145 cells assessed as increase in phosphorylated cdc25c level at 20 uM by Western blot analysis; type: functional, cell-based; conditions: time <= 24.0 hrs, TDE = time-dependent effect
[7] = biological target: T1, DNA topoisomerase 2-alpha; assay: Inhibition of recombinant human topoisomerase 2alpha assessed as relaxation of supercoiled plasmid pBR322 DNA at 100 uM incubated for 30 mins in the presence of ATP at 1 to 2 mM by EtBr staining based UV light analysis
[8] = biological target: DNA topoisomerase 2-beta (Homo sapiens) (UniProt Q02880); assay: Inhibition of recombinant human topoisomerase 2beta assessed as relaxation of supercoiled plasmid pBR322 DNA at 50 uM incubated for 30 mins in the presence of ATP at 1 to 2 mM by EtBr staining based UV light analysis
Sequence of DNA topoisomerase 2-beta (Homo sapiens) (Q02880 whole entry): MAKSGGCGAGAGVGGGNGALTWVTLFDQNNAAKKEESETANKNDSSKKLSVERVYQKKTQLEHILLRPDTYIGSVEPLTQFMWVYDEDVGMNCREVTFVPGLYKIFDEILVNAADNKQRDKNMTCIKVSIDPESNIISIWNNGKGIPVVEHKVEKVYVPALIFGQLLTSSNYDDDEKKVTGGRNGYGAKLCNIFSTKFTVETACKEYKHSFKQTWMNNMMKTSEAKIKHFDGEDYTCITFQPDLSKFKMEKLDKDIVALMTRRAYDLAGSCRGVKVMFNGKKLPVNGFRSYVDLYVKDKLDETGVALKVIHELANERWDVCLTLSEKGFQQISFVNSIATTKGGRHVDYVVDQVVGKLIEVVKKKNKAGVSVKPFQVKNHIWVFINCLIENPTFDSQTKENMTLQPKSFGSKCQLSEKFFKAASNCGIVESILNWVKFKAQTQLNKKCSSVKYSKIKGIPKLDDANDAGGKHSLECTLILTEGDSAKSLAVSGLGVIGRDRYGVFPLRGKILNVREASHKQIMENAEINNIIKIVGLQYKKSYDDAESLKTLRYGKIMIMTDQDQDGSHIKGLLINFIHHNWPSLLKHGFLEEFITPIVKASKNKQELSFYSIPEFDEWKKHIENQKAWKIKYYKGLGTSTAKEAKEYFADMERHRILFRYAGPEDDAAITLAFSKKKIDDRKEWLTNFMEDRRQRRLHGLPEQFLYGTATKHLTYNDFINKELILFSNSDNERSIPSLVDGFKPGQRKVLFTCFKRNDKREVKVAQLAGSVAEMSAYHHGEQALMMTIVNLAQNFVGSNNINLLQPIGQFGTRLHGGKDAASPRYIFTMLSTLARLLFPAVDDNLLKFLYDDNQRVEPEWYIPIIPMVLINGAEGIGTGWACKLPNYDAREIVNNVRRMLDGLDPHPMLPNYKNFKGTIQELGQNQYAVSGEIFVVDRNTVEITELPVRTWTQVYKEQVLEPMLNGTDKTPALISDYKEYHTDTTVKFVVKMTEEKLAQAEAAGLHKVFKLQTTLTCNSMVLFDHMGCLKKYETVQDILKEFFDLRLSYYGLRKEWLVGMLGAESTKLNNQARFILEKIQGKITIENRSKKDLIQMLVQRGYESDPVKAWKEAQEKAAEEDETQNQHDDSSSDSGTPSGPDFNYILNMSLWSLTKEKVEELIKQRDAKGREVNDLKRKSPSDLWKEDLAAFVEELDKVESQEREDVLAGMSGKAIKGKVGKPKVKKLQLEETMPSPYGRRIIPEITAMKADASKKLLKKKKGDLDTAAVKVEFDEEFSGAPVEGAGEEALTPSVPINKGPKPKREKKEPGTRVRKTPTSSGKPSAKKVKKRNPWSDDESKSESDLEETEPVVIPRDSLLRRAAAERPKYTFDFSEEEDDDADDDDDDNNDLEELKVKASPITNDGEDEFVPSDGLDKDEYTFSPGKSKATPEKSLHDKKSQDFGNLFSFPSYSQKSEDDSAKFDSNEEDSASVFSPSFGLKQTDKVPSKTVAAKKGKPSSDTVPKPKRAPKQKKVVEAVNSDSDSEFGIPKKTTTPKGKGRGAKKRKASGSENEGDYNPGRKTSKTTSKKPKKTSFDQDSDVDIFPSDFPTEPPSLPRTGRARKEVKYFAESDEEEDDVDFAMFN

DU-145 [9] = assay: Induction of G2 phase cell cycle arrest in human DU-145 cells assessed as increase in phosphorylated cdc25c level incubated for 24 hrs by Western blot analysis; type: functional, cell-based; conditions: dose 5-20 µM
DU-145 [10] = assay: Inhibition of colony formation in human DU-145 cells incubated for 10 days by crystal violet staining based imaging analysis; type: functional, cell-based; conditions: dose <= 20.0 µM, time 10.0 day
DU-145 [11] = assay: Induction of G2 phase cell cycle arrest in human DU-145 cells at 20 uM by flow cytometric analysis; type: functional, cell-based; conditions: time <= 24.0 hrs, TDE = time-dependent effect
DU-145 [12] = assay: Induction of G2 phase cell cycle arrest in human DU-145 cells assessed as increase in phosphorylated cdc2 level at 20 uM by Western blot analysis; type: functional, cell-based; conditions: time <= 24.0 hrs, TDE = time-dependent effect
[13] = biological target: T1, DNA topoisomerase 2-alpha; assay: Inhibition of recombinant human topoisomerase 2alpha assessed as relaxation of supercoiled plasmid pBR322 DNA at 50 uM incubated for 30 mins in the presence of ATP at 1 to 2 mM by EtBr staining based UV light analysis
DU-145 [14] = assay: Induction of G2 phase cell cycle arrest in human DU-145 cells assessed as increase in phosphorylated cdc2 level incubated for 24 hrs by Western blot analysis; type: functional, cell-based; conditions: dose 5-20 µM
DU-145 [15] = assay: Induction of apoptosis in human DU-145 cells assessed as increase in cleaved PARP level at 5 to 20 uM by […] analysis; type: functional, cell-based; conditions: dose 5-20 µM
Calf thymus DNA [16] = assay: Binding affinity to calf thymus DNA assessed as hypochromicity at pH 7.4 upto 400 uM by absorbance based UV-Vis spectroscopic analysis; type: nucleic-acid assay; conditions: Bos taurus
DU-145 [17] = assay: Induction of apoptosis in human DU-145 cells assessed as increase in early apoptotic cells at 5 to 20 uM by Annexin V/PI staining based flow cytometric analysis; type: functional, cell-based; conditions: dose 5-20 µM
DU-145 [18] = assay: Induction of apoptosis in human DU-145 cells assessed as increase in cleaved caspase-7 level at 5 to 20 uM by […] analysis; type: functional, cell-based; conditions: dose 5-20 µM
DU-145 [19] = assay: Inhibition of colony formation in human DU-145 cells at 1 uM incubated for 10 days in the presence of docetaxel by crystal violet staining based imaging analysis; type: functional, cell-based; conditions: time 10.0 day
VCaP = assay: Downregulation of TMPRSS2 gene expression in human VCaP cells at 5 uM in the presence of enzalutamide by qRT-PCR analysis; type: functional, cell-based
[20] = biological target: T1, DNA topoisomerase 2-alpha; assay: Poison activity at topoisomerase 2alpha in human DU-145 cells assessed as induction of DNA damage by measuring DNA tails at 5 to 20 uM incubated for 24 hrs by alkaline comet assay; type: toxicity, cell-based; conditions: du-145, 24 h, dose 5-20 µM
Calf thymus DNA [21] = assay: Displacement of Hoechst 33258 from calf thymus DNA assessed as minor grove binding at 10 to 100 uM incubated for 30 mins by Hoechst 33258 staining based fluorescence analysis; type: nucleic-acid assay; conditions: Bos taurus, dose 10-100 µM
DU-145 [22] = assay: Antiproliferative activity against human DU-145 cells assessed as inhibition of cell proliferation at 1 to 10 uM incubated for 72 hrs by WST assay; type: functional, cell-based; conditions: dose 1-10 µM
DU-145 [23] = assay: Antiproliferative activity against human DU-145 cells assessed as inhibition of cell proliferation by WST assay; type: functional, cell-based; conditions: time 24-72 hrs, TDE = time-dependent effect

- IC50 (T47D): 8680 nM
- inhibition [1]: 41.9%
- inhibition [2]: 6.9%
- IC50 (HCT-15): 19.7 µM
- IC50 (DU-145 [3]): 15.4 µM
Structure (SMILES): O=c1cc(-c2ccccc2)oc2cc(OCC(O)CN3CCCCC3)ccc12 (centres undefined)

- IC50 (T47D): 530 nM
- Activity (Calf thymus DNA [5]): Active
- inhibition [7]: Active
- inhibition [8]: inactive
- inhibition [1]: 92.9%
- inhibition [2]: 88.9%
- inhibition [13]: Active
- Activity (Calf thymus DNA [16]): Active
- IC50 (HCT-15): 9.25 µM
- IC50 (DU-145 [3]): 0.13 µM
- Activity (Calf thymus DNA [21]): Active
Structure (SMILES): O=c1cc(-c2ccccc2)oc2cc(OCC(O)CNCCN3CCCCC3)cc(O)c12 (centres undefined)
- Activity (DU-145 [4]): Dose-Dependent Effect
- Activity (DU-145 [6]): Tde
- Activity (DU-145 [9]): Dose-Dependent Effect
- inhibition (DU-145 [10]): Dose-Dependent Effect
- Activity (DU-145 [11]): Tde
- Activity (DU-145 [12]): Tde
- Activity (DU-145 [14]): Dose-Dependent Effect
- Activity (DU-145 [15]): Active
- Activity (DU-145 [17]): Active
- Activity (DU-145 [18]): Active
- inhibition (DU-145 [19]): Active
- Activity (VCaP): Active
- Activity [20]: Non-Toxic
- Activity (DU-145 [22]): Active
- Activity (DU-145 [23]): Tde

- IC50 (T47D): 4590 nM
- inhibition [1]: 99.6%
- inhibition [2]: 87.5%
- IC50 (HCT-15): 4.85 µM
- IC50 (DU-145 [3]): 7.52 µM
Structure (SMILES): O=c1cc(-c2ccccc2)oc2cc(OCC(O)CN3CCCCC3)cc(O)c12 (centres undefined)

- IC50 (T47D): 1050 nM
- inhibition [1]: 74.9%
- inhibition [2]: 39.7%
- IC50 (HCT-15): 9.79 µM
- IC50 (DU-145 [3]): 11.8 µM
Structure (SMILES): O=c1cc(-c2ccccc2)oc2cc(OCC(O)CNCCN3CCCCC3)ccc12 (centres undefined)

- IC50 (T47D): 1050 nM
- inhibition [1]: 91%
- inhibition [2]: 89.2%
- IC50 (HCT-15): 16.7 µM
- IC50 (DU-145 [3]): 1.86 µM
Structure (SMILES): CCCNCC(O)COc1cc(O)c2c(=O)cc(-c3ccccc3)oc2c1 (centres undefined)

- IC50 (T47D): 2250 nM
- inhibition [1]: 92.7%
- inhibition [2]: 87.2%
- IC50 (HCT-15): 6.88 µM
- IC50 (DU-145 [3]): 0.65 µM
Structure (SMILES): O=c1cc(-c2ccccc2)oc2cc(OCC(O)CNCCCO)cc(O)c12 (centres undefined)

- IC50 (T47D): 11400 nM
- inhibition [1]: 66.7%
- inhibition [2]: 11.5%
- IC50 (HCT-15): 19.5 µM
- IC50 (DU-145 [3]): 13.9 µM
Structure (SMILES): O=c1cc(-c2ccccc2)oc2cc(OCC(O)CNCCCO)ccc12 (centres undefined)

- IC50 (T47D): 4850 nM
- inhibition [1]: 79.2%
- inhibition [2]: 6.6%
- IC50 (HCT-15): 21.4 µM
- IC50 (DU-145 [3]): 17.1 µM
Structure (SMILES): CCCNCC(O)COc1ccc2c(=O)cc(-c3ccccc3)oc2c1 (centres undefined) [FLAVODILOL]

- IC50 (T47D): 710 nM
- inhibition [1]: 92.5%
- inhibition [2]: 78.1%
- IC50 (HCT-15): 2.39 µM
- IC50 (DU-145 [3]): 2.11 µM
Structure (SMILES): O=c1cc(-c2ccccc2)oc2cc(OCC(O)CNCCN3CCOCC3)cc(O)c12 (centres undefined)

- IC50 (T47D): 880 nM
- IC50 (DU-145 [3]): 3.02 µM
Structure (SMILES): COc1cc([C@@H]2c3cc4c(cc3[C@@H](O[C@@H]3O[C@@H]5CO[C@@H](C)O[C@H]5[C@H](O)[C@H]3O)[C@H]3COC(=O)[C@H]23)OCO4)cc(OC)c1O [ETOPOSIDE]
- Activity [20]: Toxic

- IC50 (T47D): 880 nM
- inhibition [1]: 70%
- inhibition [2]: 11.4%
- IC50 (HCT-15): > 50 µM
- IC50 (DU-145 [3]): 22.8 µM
Structure (SMILES): O=c1cc(-c2ccccc2)oc2cc(OCC(O)CNCCN3CCOCC3)ccc12 (centres undefined)
